Columns and labels:
[1] = system: Saccharomyces cerevisiae ATCC 9763; test: Microbiological method for determining natamycin release rate from a loaded filter paper disc into seeded agar (inhibition zone); type: physicochemical
Text: The test used to measure the natamycin release rate has been described in example 1 of this application. Briefly, the sample comprising natamycin is applied to a carrier. The carrier can be any material that provides unlimited water transport. Preferably, the carrier is a filter paper disc, more preferably the filter paper disc used in example 1. Subsequently, the carrier loaded with the natamycin composition is applied to the surface of an agar plate seeded with yeast or fungal cells (in example 1 Saccharomyces cerevisiae cells were used). The agar plate and the carrier are subsequently incubated at a temperature such that the natamycin is released into the agar. (in example 1, the temperature chosen is 6° C.) during 24 hours. After having removed the carrier from the agar plate, the agar plate is incubated under growth permitting conditions for said cells (in example 1, the temperature is 30° C.) during a chosen period. In this case, the period is 24 hours or 48 hours depending on the type of release rate desired to be determined. Finally, inhibition of cell growth in the agar due to the presence of the natamycin, which has been released from the carrier into the agar, is determined. The size of the inhibition zone is a measure of the natamycin released from the sample. […] The discs were then put on agar, which was seeded with the Saccharomyces cerevisiae ATCC 9763. The petri dishes containing the agar were then stored for 24 hours at 6° C. to permit the natamycin to release into the agar. […] As a reference, discs were freshly loaded with a range of known amounts of natamycin dissolved in aqueous methanol. The next day, the sample discs were transferred to new petri dishes containing agar seeded with Saccharomyces cerevisiae. New discs freshly loaded with a range of known quantities of dissolved natamycin were prepared for use as a reference. The new dishes with the sample discs and the new reference were stored at 6° C. for 24 hours and the old dishes containing the released natamycin incubated at 30° C. for 24 hours. The size of the inhibition zone is a measure of the natamycin released from the sample disc. The amount of released natamycin can be calculated by methods know per se. By repeating the procedure, the released natamycin can be measured on a daily basis. Other release time periods may alternatively be chosen. Using the method described in example 1, the release rate profile of the new slow release natamycin was compared to the release rate profile of known commercial natamycin DELVOCID® (DSM, The Netherlands). Suspensions of the natamycin preparations were prepared in such a manner that each suspension contained 800 ppm natamycin as such. 50 μl of each of the respective mixtures was applied on a paper filter disc and the release rate was analysed using the method of example 1.

[2] = Chemical stability (natamycin degradation) in beverages stored at 4° C.; type: physicochemical; settings: for Total degradation: 4° C., 150 to 170 ppm natamycin
Protocol: The release rate of the new slow release natamycin was compared with that of known commercial natamycin DELVOCID® Instant (DSM, The Netherlands) by measuring their chemical stability in various beverages. The natamycin preparations were suspended in beverages to a final concentration of 150 to 170 ppm natamycin. The natamycin containing beverages were stored at 4° C. and the natamycin concentration in the beverage was measured in time.

[3] = system: Saccharomyces cerevisiae ATCC 9763; settings: carrier on agar surface of 0.6 cm diameter, carrier loading 40 μg; disclosed in U.S. Pat. No. 5,821,233; cited from earlier work
[4] = Initial release rate, 40 μg carrier loading, 0.6 cm disc, 6° C.

C[C@@H]1C/C=C/C=C/C=C/C=C/[C@H](O[C@@H]2O[C@H](C)[C@@H](O)[C@H](N)[C@@H]2O)C[C@@H]2O[C@](O)(C[C@@H](O)C[C@H]3O[C@@H]3/C=C/C(=O)O1)C[C@H](O)[C@H]2C(=O)O [Low release natamycin, natamycin]
Release rate after 11 days ([1]; 5 μg carrier loading): 0.35 μg/24 hours
% decrease in release rate after 9 days ([1]; 10 μg carrier loading): 35%
Release rate after 11 days ([1]; 10 μg carrier loading): 0.6 μg/24 hours
% decrease in release rate after 9 days ([1]; 40 μg carrier loading): 45%
Release rate after 11 days ([1]; 40 μg carrier loading): 1.2 μg/24 hours
Release rate after 24 hours [1, 4]: <2 μg/24 hours
Release rate after 48 hours [1, 4]: <1.8 μg/24 hours
Release rate compared with DELVOCID ([1]; comparison in words): lower release rate
Total degradation ([2]; Ice tea pH 3.2, 1 week): 3.4 ppm
Total degradation ([2]; Ice tea pH 3.2, 2 weeks): 5.4 ppm
Total degradation ([2]; Ice tea pH 3.2, 3 weeks): 3.2 ppm
Total degradation ([2]; Ice tea pH 3.2, 4 weeks): 15.0 ppm
Total degradation ([2]; Ice tea pH 3.2, 5 weeks): 17.4 ppm
Difference in total degradation (DELVOCID Instant minus slow release natamycin) ([2]; Ice tea, 1 week): 11.5 ppm
Difference in total degradation (DELVOCID Instant minus slow release natamycin) ([2]; Ice tea, 2 weeks): 11.1 ppm
Difference in total degradation (DELVOCID Instant minus slow release natamycin) ([2]; Ice tea, 3 weeks): 12.1 ppm
Difference in total degradation (DELVOCID Instant minus slow release natamycin) ([2]; Ice tea, 4 weeks): 13.2 ppm
Difference in total degradation (DELVOCID Instant minus slow release natamycin) ([2]; Ice tea, 5 weeks): 14.3 ppm
Total degradation ([2]; Tomato juice pH 4.2, 1 week): 5.1 ppm
Total degradation ([2]; Tomato juice pH 4.2, 2 weeks): 13.1 ppm
Total degradation ([2]; Tomato juice pH 4.2, 3 weeks): 20.1 ppm
Total degradation ([2]; Tomato juice pH 4.2, 4 weeks): 23.2 ppm
Total degradation ([2]; Tomato juice pH 4.2, 5 weeks): 28.9 ppm
Difference in total degradation (DELVOCID Instant minus slow release natamycin) ([2]; Tomato juice, 1 week): 3.5 ppm
Difference in total degradation (DELVOCID Instant minus slow release natamycin) ([2]; Tomato juice, 2 weeks): 0.6 ppm
Difference in total degradation (DELVOCID Instant minus slow release natamycin) ([2]; Tomato juice, 3 weeks): 6.4 ppm
Difference in total degradation (DELVOCID Instant minus slow release natamycin) ([2]; Tomato juice, 4 weeks): 4.7 ppm
Difference in total degradation (DELVOCID Instant minus slow release natamycin) ([2]; Tomato juice, 5 weeks): 3.7 ppm
Release rate compared with DELVOCID Instant in beverages ([2]; tomato juice and ice tea, inferred from degradation, in words): lower

C[C@@H]1C/C=C/C=C/C=C/C=C/[C@H](O[C@@H]2O[C@H](C)[C@@H](O)[C@H](N)[C@@H]2O)C[C@@H]2O[C@](O)(C[C@@H](O)C[C@H]3O[C@@H]3/C=C/C(=O)O1)C[C@H](O)[C@H]2C(=O)O [natamycin]
Release rate over the first 24 hours [3]: at least 3 μg/24 hours

Source: patent US20130309379A1, “Anti-Fungal Composition” (DSM IP ASSETS B.V., priority 2005, published 2013)
